One block for each compound: values may come before it.
Experiments:
Assay type in all cases: functional
[1] = Antioxidant activity against copper-mediated LDL oxidation assessed as oxidized LDL type E level at 3 x 10 '-5 M by FPLC method
Oryctolagus cuniculus [2] = experiment: Antioxidant activity against copper-induced LDL oxidation in Watanabe Oryctolagus cuniculus (rabbit) assessed as time duration of protection at 250 mg/kg, po administered as single dose
[3] = Antioxidant activity against copper-mediated LDL oxidation assessed as oxidized LDL type D level at 3 x 10 '-5 M by FPLC method
[4] = Antioxidant activity assessed as inhibition of copper-mediated LDL oxidation by FPLC method
[5] = Antioxidant activity assessed as inhibition of copper-mediated LDL oxidation by FPLC method relative to probucol
[6] = Antioxidant activity assessed as inhibition of copper-mediated LDL oxidation at 3 x 10 '-6 M by FPLC method; details: TDE = time-dependent effect
[7] = Antioxidant activity against copper-mediated LDL oxidation assessed as oxidized LDL type D level at 3 x 10 '-6 M by FPLC method
[8] = Antioxidant activity against copper-mediated LDL oxidation assessed as oxidized LDL type C level at 3 x 10 '-6 M by FPLC method
Oryctolagus cuniculus [9] = experiment: Antioxidant activity against copper-induced LDL oxidation in Watanabe Oryctolagus cuniculus (rabbit) assessed as time duration of protection at 50 mg/kg, po administered as single dose
[10] = Antioxidant activity against copper-mediated LDL oxidation assessed as native LDL type B level at 3 x 10 '-6 M by FPLC method

IC50 [4]: 30 µM
Structure (SMILES): CC(C)(Sc1cc(C(C)(C)C)c(O)c(C(C)(C)C)c1)Sc1cc(C(C)(C)C)c(O)c(C(C)(C)C)c1 [PROBUCOL]
Activity [1]: 52%
Time (Oryctolagus cuniculus [2]): 48 h
Activity [3]: 48%

IC50 [4]: 3 µM
Structure (SMILES): CC1/C(=C\c2cc(C(C)(C)C)c(O)c(C(C)(C)C)c2)C(=O)c2cc3oc(=O)n(C)c3cc21 (configuration not stated)
Ratio [5]: 10
Activity [6]: tde
Activity [7]: 8%
Activity [8]: 8%
Time (Oryctolagus cuniculus [9]): 48 h
Activity [10]: 84%
Activity [4]: Dose-dependent effect
